Laboratory results reported in ChEMBL document CHEMBL1140437, “N-substituted cis-4a-(3-hydroxyphenyl)-8a-methyloctahydroisoquinolines are opioid receptor pure antagonists” (J Med Chem, 2005).

Legend:
[1] = molecular target: Kappa-type opioid receptor (Homo sapiens) (UniProt P41145)
Description: Inhibition of U69,593 stimulated [35S]GTP-gamma-S binding to cloned human kappa opioid receptor

[2] = molecular target: Opioid receptors; delta & kappa (Homo sapiens) (UniProt P41145+P41143); test: Selectivity for cloned human delta opioid receptor over kappa opioid receptor; type: protein assay
[3] = molecular target: Opioid receptors; mu & kappa (Homo sapiens) (UniProt P41145+P35372); test: Selectivity for cloned human mu opioid receptor over kappa opioid receptor; type: protein assay
[4] = molecular target: Mu-type opioid receptor (Homo sapiens) (UniProt P35372)
Description: Inhibition of DAMGO stimulated [35S]GTP-gamma-S binding to cloned human mu opioid receptor

[5] = molecular target: Delta-type opioid receptor (Homo sapiens) (UniProt P41143)
Sequence of Delta-type opioid receptor (Homo sapiens) (P41143 whole entry): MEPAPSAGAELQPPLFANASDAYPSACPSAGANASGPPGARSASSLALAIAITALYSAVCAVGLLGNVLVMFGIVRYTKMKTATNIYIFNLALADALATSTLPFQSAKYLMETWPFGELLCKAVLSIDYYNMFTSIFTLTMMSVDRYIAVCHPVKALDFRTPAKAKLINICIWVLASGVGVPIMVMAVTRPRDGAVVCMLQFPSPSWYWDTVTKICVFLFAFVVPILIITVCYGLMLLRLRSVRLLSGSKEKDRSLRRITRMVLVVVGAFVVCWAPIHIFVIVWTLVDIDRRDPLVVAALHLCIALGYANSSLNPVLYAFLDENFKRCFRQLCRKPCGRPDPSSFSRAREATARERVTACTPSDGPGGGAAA
Description: Inhibition of DPDPE stimulated [35S]GTP-gamma-S binding to cloned human delta opioid receptor

Sequence of Kappa-type opioid receptor (Homo sapiens) (P41145 whole entry): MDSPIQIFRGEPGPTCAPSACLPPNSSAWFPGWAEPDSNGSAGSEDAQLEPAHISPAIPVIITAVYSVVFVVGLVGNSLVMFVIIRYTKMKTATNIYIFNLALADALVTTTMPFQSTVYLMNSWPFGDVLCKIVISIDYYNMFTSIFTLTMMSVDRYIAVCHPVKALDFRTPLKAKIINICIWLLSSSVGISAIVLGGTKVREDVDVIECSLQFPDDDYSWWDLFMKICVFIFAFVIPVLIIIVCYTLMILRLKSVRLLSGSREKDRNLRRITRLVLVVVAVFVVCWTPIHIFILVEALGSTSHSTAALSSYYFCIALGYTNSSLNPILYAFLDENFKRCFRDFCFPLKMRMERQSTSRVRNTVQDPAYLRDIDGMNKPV
Sequence of Opioid receptors; mu & kappa (Homo sapiens) (P35372 whole entry, looked up): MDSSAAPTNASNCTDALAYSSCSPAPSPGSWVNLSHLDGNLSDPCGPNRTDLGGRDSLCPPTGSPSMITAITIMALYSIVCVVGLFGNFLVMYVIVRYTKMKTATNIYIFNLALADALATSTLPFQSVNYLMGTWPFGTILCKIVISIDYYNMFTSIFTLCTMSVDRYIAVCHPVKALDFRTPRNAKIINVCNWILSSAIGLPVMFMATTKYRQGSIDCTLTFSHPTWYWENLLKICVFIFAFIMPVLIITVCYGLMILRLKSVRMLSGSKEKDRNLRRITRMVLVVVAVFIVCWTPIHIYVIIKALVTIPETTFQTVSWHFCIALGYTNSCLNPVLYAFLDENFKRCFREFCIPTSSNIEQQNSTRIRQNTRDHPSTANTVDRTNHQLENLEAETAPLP
Sequence of Opioid receptors; mu & kappa (Homo sapiens) (P41145 whole entry, looked up): as the sequence (P41145 whole entry) above
Sequence of Mu-type opioid receptor (Homo sapiens) (P35372 whole entry): as the sequence (P35372 whole entry, looked up) above
Sequence of Opioid receptors; delta & kappa (Homo sapiens) (P41143 whole entry, looked up): as the sequence (P41143 whole entry) above
Sequence of Opioid receptors; delta & kappa (Homo sapiens) (P41145 whole entry, looked up): as the sequence (P41145 whole entry) above

| SMILES | Ke [1] [nM] | Ratio Ke [2] | Ratio Ke [3] | Ke [4] [nM] | Ke [5] [nM] |
| --- | --- | --- | --- | --- | --- |
| CN1CC[C@]2(c3cccc(O)c3)CCCC[C@]2(C)C1 | 3.37 | 141 | 29 | 99.4 | 477 |
| C[C@H]1CN(CC[C@H](O)C2CCCCC2)CC[C@@]1(C)c1cccc(O)c1 |  |  |  | 0.1 | 0.6 |
| C[C@]12CC[C@@H](NC(=O)C3(c4ccccc4)CCCC3)C[C@@]1(c1cccc(O)c1)CCN(CCCc1ccccc1)C2 | 1.93 | 3 | 0.8 | 1.46 | 6.46 |
| Oc1ccc2c3c1O[C@H]1c4[nH]c5c(c4C[C@@]4(O)[C@@H](C2)N(CC2CC2)CC[C@]314)C[C@@]1(O)[C@H]2Cc3ccc(O)c4c3[C@@]1(CCN2CC1CC1)[C@H]5O4 |  | 110 | 475 |  |  |
| C[C@]12CCCC[C@@]1(c1cccc(O)c1)CCN(CCCc1ccccc1)C2 (relative stereo) | 1.03 | 12 | 0.8 | 0.8 | 12.4 |
| C[C@]12CCCC[C@@]1(c1cccc(O)c1)CCN(CCc1ccccc1)C2 (relative stereo) | 2.84 | 7 | 0.3 | 0.84 | 18.9 |
| C[C@]12CC[C@@H](NC(=O)CCN3CCCCC3)C[C@@]1(c1cccc(O)c1)CCN(CCCc1ccccc1)C2 (relative stereo) | 0.27 | 46 | 154 | 41.7 | 12.3 |
| C[C@]12CC[C@@H](NC(=O)CCN3CCc4ccccc4C3)C[C@@]1(c1cccc(O)c1)CCN(CCCc1ccccc1)C2 (relative stereo) | 0.22 | 21 | 45 | 9.82 | 4.56 |
| C[C@]12CC[C@@H](NC(=O)c3cc4ccccc4s3)C[C@@]1(c1cccc(O)c1)CCN(CCCc1ccccc1)C2 (relative stereo) | 0.46 | 2 | 25 | 11.3 | 1.01 |
